Source: patent US20260174875A1 (Novo Nordisk A/S, priority 2023, published 2026)
Numbered stars: 1 amine (or outer) side, 2 acyl side, 3 side chain; on linkers, the order of the positions; unused ones are H or OH. Square brackets hold non-standard residues; d marks the D form. Side chains are listed from the residue outwards. * marks the point of attachment. C18 diacid = O=C(O)CCCCCCCCCCCCCCCCC(=O)*; C16 diacid = O=C(O)CCCCCCCCCCCCCCC(=O)*; γGlu = O=C(O)[C@H](CCC(=O)[*:2])N[*:1]; AEEA = NCCOCCOCC(=O)O; Aib = CC(C)(N)C(=O)O

molecular target: T1, human GLP-1 receptor (hGLP-1R) (Homo sapiens, UniProt P43220); assay: GLP-1 receptor assay, method A (CRE-luciferase reporter, BHK cells); assay type: cell-based; details: hGLP-1R Potency, 1% HSA, EC50, method A, in the presence of 1% HSA
T1 construct: expressed in transfected cells
How it was run: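 Albumin sensitivity is tested by running the assay both without HSA and with 1% (w/v) HSA. Frozen BHK cells carrying hGLP-1R and CRE-driven luciferase are incubated with compound for 3 hours at 37° C. Luminescence is then read with steadylite Plus.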

T1 sequence (P43220 24-463): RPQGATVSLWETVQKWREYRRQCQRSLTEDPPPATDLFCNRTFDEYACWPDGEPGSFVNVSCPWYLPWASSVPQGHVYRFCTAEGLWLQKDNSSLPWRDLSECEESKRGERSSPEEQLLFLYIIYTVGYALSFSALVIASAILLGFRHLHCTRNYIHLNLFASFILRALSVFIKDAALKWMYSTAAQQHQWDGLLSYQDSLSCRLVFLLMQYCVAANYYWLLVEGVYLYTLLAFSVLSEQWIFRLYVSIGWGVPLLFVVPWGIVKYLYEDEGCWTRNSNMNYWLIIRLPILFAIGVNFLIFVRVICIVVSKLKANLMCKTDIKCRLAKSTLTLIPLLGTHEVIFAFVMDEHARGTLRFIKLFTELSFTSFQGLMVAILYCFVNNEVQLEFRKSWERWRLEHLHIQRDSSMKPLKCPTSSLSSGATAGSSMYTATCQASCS

Point of comparison: “H[Aib]HGTFTSDYSILLEEQAAREFIEWLLAGGPSK([AEEA-AEEA-γGlu-C16 diacid])GAPPPSGGGEASHLSTAQTARLSAELHRLADLPRTETGSGSP-NH2 [Compound 61]”, EC50 0.0147 nM. Against it:
- H[Aib]HGTFTSDYSILLEEQAAREFIEWLLAGGPSK([AEEA-AEEA-γGlu-C16 diacid])GAPPPSGGGEASELSTAALGRLSAELHELATLPRTETGSGSP-NH2 [Compound 12] — within 1.5-fold, 0.0102 nM
- H[Aib]HGTFTSDYSILLEEQAAREFIEWLLAGGPSK([AEEA-AEEA-γGlu-C18 diacid])GAPPPSGGGEASELSTAALGRLSAELHELATLPRTETGSGSP-NH2 [Compound 15] — 7-fold higher, 0.103 nM

same assay, conditions: hGLP-1R Potency, no HSA, EC50, method A, absence of HSA

Work on “H[Aib]HGTFTSDYSILLEEQAAREFIEWLLAGGPSK([AEEA-AEEA-γGlu-C16 diacid])GAPPPSGGGEASHLSTAQTARLSAELHRLADLPRTETGSGSP-NH2 [Compound 61]” yielded an EC50 of 0.00279 nM.

same assay, conditions: method A, absence of HSA; read-out: hGLP-1R Potency, no HSA, EC50

For “H[Aib]HGTFTSDYSILLEEQAAREFIEWLLAGGPSK([AEEA-AEEA-γGlu-C18 diacid])GAPPPSGGGEASELSTAALGRLSAELHELATLPRTETGSGSP-NH2 [Compound 15]”, the EC50 was 0.00141 nM.

system: not listed separately; assay: Pharmacokinetic study in minipigs (i.v.); assay type: in vivo, Göttingen minipigs; details: female, Göttingen, minipig, plasma, iv; i.v. administration to minipigs, 2 nmol/kg; read-out: Terminal half-life t1/2 (converted)
Method: This is done in a pharmacokinetic (PK) study, where the terminal half-life (t1/2) of the compound or derivative in question is determined. By terminal half-life is meant the time it takes to halve a certain plasma concentration in the terminal elimination phase.
Female Göttingen minipigs, obtained from Ellegaard Göttingen Minipigs (Dalmose, Denmark), approximately 8-12 months of age and weighing approximately 20-30 kg were used in the studies.
After three weeks of acclimatisation two permanent central venous catheters were implanted in vena cava caudalis in each animal. The animals were allowed at least 10 days recovery after the surgery and were then used for repeated pharmacokinetic studies with a suitable wash-out period between successive dosing.
The compounds of the invention were formulated (40 nmol/ml) in the following vehicle: 8 mM phosphate; 250 mM glycerol; 0.007% polysorbate 20, pH 7.4.
Blood samples (for example 1.3 ml) were collected in EDTA (1.3 ml tube containing K3EDTA to yield 1.6 mg K3EDTA/ml blood) coated tubes and then centrifuged at 4° C. and 2000×g for 10 minutes.
Plasma was within 30 min after centrifugation pipetted into Micronic tubes stored on dry ice and were afterwards kept at −20° C. until analysed for plasma concentration of the compounds using LCMS.
Plasma concentrations of the peptides of the invention were assayed by plasma protein precipitation and analysed by liquid chromatography mass spectrometry (LC-MS). Calibrators were prepared by spiking blank plasma from minipigs with the compounds in the typical range from 0.05 to 200 nM. […] The supernatant was diluted with 1 volumes of Milli-Q water containing 1% Formic acid before injection on the LC-MS system. Individual plasma concentration-time profiles were analysed by a non-compartmental pharmacokinetic method (NCA) in Phoenix v. 6.4 (Pharsight Inc., Mountain View, CA, USA), and the resulting terminal half-lives (harmonic mean) determined. The LC-MS analysis was carried out using a TurboFlow HPLC system from Thermo Fisher Scientific (Bremen, Germany) coupled to either a Q Exactive Orbitrap or Altis Triple Quadrupole (TQ) Mass Spectrometer. […] The Orbitrap mass spectrometer were operating in positive ionization mode with a spray voltage of 4.0 kV using Parallel Reaction Monitoring scan mode using 5 m/z isolation windows on the most abundant charge state of the compounds with a resolution of 35K on the Orbitrap MS.
The data was processed using the Quan Browser in the Xcalibur software from Thermo Fisher Scientific (Bremen, Germany) by fitted the data to linear calibration curves (weighed 1/x^2), used for calculating the concentration in the plasma samples. Quality control samples were included.

Point of comparison: “H[Aib]HGTFTSDYSILLEEQAAREFIEWLLAGGPSK([AEEA-AEEA-γGlu-C16 diacid])GAPPPSGGGEASELSTAALGRLSAELHELATLPRTETGSGSP-NH2 [Compound 12]”, half-life 81 h. Against it:
- H[Aib]HGTFTSDYSILLEEQAAREFIEWLLAGGPSK([AEEA-AEEA-γGlu-C16 diacid])GAPPPSGGGEASHLSTAQTARLSAELHRLADLPRTETGSGSP-NH2 [Compound 61] — within 1.5-fold, 61 h
- H[Aib]HGTFTSDYSILLEEQAAREFIEWLLAGGPSK([AEEA-AEEA-γGlu-C18 diacid])GAPPPSGGGEASELSTAALGRLSAELHELATLPRTETGSGSP-NH2 [Compound 15] — 1.5-fold higher, 122 h

system: not listed separately; assay: Chemical stability assessment in formulation (UPLC-UV-MS purity loss at 37° C.); assay type: physicochemical; details: 8 mM phosphate buffer pH 7.4, 1 mg/mL, 2 weeks
How it was run: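 Degradation tracked by UPLC-UV-MS (formic acid/acetonitrile gradient) on samples drawn over 2 weeks at 37° C. Solutions were made at a 1 mg/mL target in 8 mM phosphate, pH 7.4, kept in sealed vials and frozen after sampling.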

Point of comparison: “H[Aib]HGTFTSDYSILLEEQAAREFIEWLLAGGPSK([AEEA-AEEA-γGlu-C16 diacid])GAPPPSGGGEASELSTAALGRLSAELHELATLPRTETGSGSP-NH2 [Compound 12]”, “Purity loss per week at 37° C.” value 5.6%. Against it:
- H[Aib]HGTFTSDYSILLEEQAAREFIEWLLAGGPSK([AEEA-AEEA-γGlu-C16 diacid])GAPPPSGGGEASHLSTAQTARLSAELHRLADLPRTETGSGSP-NH2 [Compound 61] — lower, 2.0%
- H[Aib]HGTFTSDYSILLEEQAAREFIEWLLAGGPSK([AEEA-AEEA-γGlu-C18 diacid])GAPPPSGGGEASELSTAALGRLSAELHELATLPRTETGSGSP-NH2 [Compound 15] — lower, 3.8%

molecular target: T2, human amylin receptor (hAMYR3) (Homo sapiens, UniProt O60896+P30988); assay: Amylin receptor assay, method A (CRE-luciferase reporter, BHK cells); assay type: cell-based; details: hAMYR3 Potency, 1% HSA, EC50, method A, in the presence of 1% HSA
T2 construct: host or cells: BHK cells (Hollex-1 line expressing hCTR(a) and CRE-Luc), further transfected with human RAMP3
T2 sequence (P30988 25-474): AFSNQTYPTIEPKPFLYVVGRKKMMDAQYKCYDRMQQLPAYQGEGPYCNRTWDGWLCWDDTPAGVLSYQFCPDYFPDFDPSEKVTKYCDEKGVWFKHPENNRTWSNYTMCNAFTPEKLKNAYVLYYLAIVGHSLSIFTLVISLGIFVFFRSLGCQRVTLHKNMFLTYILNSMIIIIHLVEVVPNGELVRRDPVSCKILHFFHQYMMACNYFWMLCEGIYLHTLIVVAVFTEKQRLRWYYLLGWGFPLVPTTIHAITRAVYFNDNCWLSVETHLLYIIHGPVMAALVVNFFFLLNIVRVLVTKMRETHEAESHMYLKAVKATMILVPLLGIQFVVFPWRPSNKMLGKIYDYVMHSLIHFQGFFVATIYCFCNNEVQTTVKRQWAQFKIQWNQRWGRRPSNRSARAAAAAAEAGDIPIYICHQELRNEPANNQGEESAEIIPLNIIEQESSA
T2 sequence (O60896 24-148): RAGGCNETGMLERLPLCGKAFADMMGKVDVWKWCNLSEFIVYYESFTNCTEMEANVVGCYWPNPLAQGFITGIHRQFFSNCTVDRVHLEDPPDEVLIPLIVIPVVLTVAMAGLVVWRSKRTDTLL

Point of comparison: “H[Aib]HGTFTSDYSILLEEQAAREFIEWLLAGGPSK([AEEA-AEEA-γGlu-C16 diacid])GAPPPSGGGEASHLSTAQTARLSAELHRLADLPRTETGSGSP-NH2 [Compound 61]”, EC50 0.0307 nM. Against it:
- H[Aib]HGTFTSDYSILLEEQAAREFIEWLLAGGPSK([AEEA-AEEA-γGlu-C16 diacid])GAPPPSGGGEASELSTAALGRLSAELHELATLPRTETGSGSP-NH2 [Compound 12] — 1.8-fold higher, 0.055 nM
- H[Aib]HGTFTSDYSILLEEQAAREFIEWLLAGGPSK([AEEA-AEEA-γGlu-C18 diacid])GAPPPSGGGEASELSTAALGRLSAELHELATLPRTETGSGSP-NH2 [Compound 15] — 2.7-fold higher, 0.0822 nM

same assay, conditions: hAMYR3 Potency, no HSA, EC50, method A, absence of HSA

“H[Aib]HGTFTSDYSILLEEQAAREFIEWLLAGGPSK([AEEA-AEEA-γGlu-C16 diacid])GAPPPSGGGEASHLSTAQTARLSAELHRLADLPRTETGSGSP-NH2 [Compound 61]” gave an EC50 of 0.00297 nM.

same assay, conditions: method A, absence of HSA; read-out: hAMYR3 Potency, no HSA, EC50

Point of comparison: “H[Aib]HGTFTSDYSILLEEQAAREFIEWLLAGGPSK([AEEA-AEEA-γGlu-C16 diacid])GAPPPSGGGEASELSTAALGRLSAELHELATLPRTETGSGSP-NH2 [Compound 12]”, EC50 0.00623 nM. Against it:
- H[Aib]HGTFTSDYSILLEEQAAREFIEWLLAGGPSK([AEEA-AEEA-γGlu-C18 diacid])GAPPPSGGGEASELSTAALGRLSAELHELATLPRTETGSGSP-NH2 [Compound 15] — within 1.5-fold, 0.00501 nM
